Results from ChEMBL document CHEMBL1152983, “Substitution of the arginine/leucine residues in apidaecin Ib with peptoid residues: effect on antimicrobial activity, cellular uptake, and proteolytic degradation” (J Med Chem, 2009).
Converted amounts (≈) assume the structure as drawn. Starred links: 1 amine or outer side, 2 acyl side, 3 side chain; linkers in the order of their positions; H or OH if unused. Non-standard residues stand in square brackets, D forms with d. Residues, ends and D or L forms follow the SMILES beside them. Gly(N-(CH2)3-guanidino) = N=C(N)NCCCNCC(=O)O; X1 = N=C(N)NCCN(CC(=O)[*:2])[*:1]; NhArg = N=C(N)NCCCCNCC(=O)O

Experiments:
[1] = Membrane permeabilization in eukaryotic membrane model consisting of single unilamellar vesicle of L-alpha-phosphatidylcholine-cholesterol assessed as 5(6)-carboxyfluorescein release at high peptide-to-lipid ratio after 50 mins by fluorescence assay; assay type: ADME, cell membranes
[2] = Membrane permeabilization in eukaryotic membrane model consisting of single unilamellar vesicle of L-alpha-phosphatidylcholine-cholesterol assessed as 5(6)-carboxyfluorescein release at high peptide-to-lipid ratio after 20 mins by fluorescence assay; assay type: ADME, cell membranes
[3] = Toxicity in human erythrocytes assessed as hemolytic activity at 30 uM after 60 mins; assay type: cell-based, Erythrocyte; settings: read-out: Activity
[4] = system: Klebsiella pneumoniae; assay: Antimicrobial activity against Klebsiella pneumoniae 22 after 18 hrs by broth microdilution susceptibility test; assay type: functional; settings: Klebsiella pneumoniae, 22, 18 h
[5] = system: Salmonella enterica subsp. enterica; assay: Antimicrobial activity against Salmonella Typhimurium ATCC 14028 after 18 hrs by broth microdilution susceptibility test; assay type: functional, Salmonella enterica subsp. enterica serovar Typhimurium; settings: ATCC 14028, 18 h
[6] = system: Escherichia coli; assay: Antimicrobial activity against Escherichia coli ATCC 25922 after 18 hrs by broth microdilution susceptibility test; assay type: functional; settings: ATCC 25922, 18 h
[7] = system: Salmonella enterica subsp. enterica; assay: Antimicrobial activity against Salmonella enteritidis PD1 after 18 hrs by broth microdilution susceptibility test; assay type: functional, Salmonella enterica subsp. enterica serovar Enteritidis; settings: PD1, 18 h
[8] = system: Escherichia coli; assay: Antimicrobial activity against Escherichia coli ML35 after 18 hrs by broth microdilution susceptibility test; assay type: functional; settings: ML35, 18 h
[9] = system: Salmonella enterica subsp. enterica; assay: Antimicrobial activity against Salmonella enteritidis D5 after 18 hrs by broth microdilution susceptibility test; assay type: functional, Salmonella enterica subsp. enterica serovar Enteritidis; settings: D5, 18 h
[10] = system: Escherichia coli; assay: Antimicrobial activity against Escherichia coli O18K1H7 after 18 hrs by broth microdilution susceptibility test; assay type: functional; settings: O18K1H7, 18 h
[11] = Chemical stability assessed as compound degradation at 2 mg/mL after 24 hrs by HPLC and ESI-MS analysis in presence of trypsin; assay type: physicochemical; settings: isolated protein
[12] = Toxicity in human erythrocytes assessed as hemolytic activity at 300 uM after 60 mins; assay type: cell-based, Erythrocyte; settings: read-out: Activity

| Structure (SMILES) | Activity [1] | Activity [2] | hemolysis at 1 h, 30 µM [3] | MIC [4] | MIC [5] | MIC [6] | MIC [7] | MIC [8] | MIC [9] | MIC [10] | Stability [11] | hemolysis at 1 h, 300 µM [12] |
| --- | --- | --- | --- | --- | --- | --- | --- | --- | --- | --- | --- | --- |
| CC[C@H](C)[C@H](NC(=O)[C@H](Cc1ccc(O)cc1)NC(=O)[C@@H](NC(=O)[C@@H]1CCCN1C(=O)[C@H](CCCNC(=N)N)NC(=O)[C@H](CC(N)=O)NC(=O)[C@H](CC(N)=O)NC(=O)CN)C(C)C)C(=O)N1CCC[C@H]1C(=O)N[C@@H](CCC(N)=O)C(=O)N1CCC[C@H]1C(=O)N[C@@H](CCCNC(=N)N)C(=O)N1CCC[C@H]1C(=O)N[C@@H](Cc1cnc[nH]1)C(=O)N1CCC[C@H]1C(=O)N[C@@H](CCCNC(=N)N)C(=O)N[C@@H](CC(C)C)C(=O)O (H-GNNRPVYIPQPRPHPRL-OH) | Not Active | Not Active | ≤ 2% | > 128 µM | > 128 µM | 128 µM (≈ 257 µg/mL) | – | – | – | – | – | – |
| CC[C@H](C)[C@H](NC(=O)[C@H](Cc1ccc(O)cc1)NC(=O)[C@@H](NC(=O)[C@@H]1CCCN1C(=O)[C@H](CCCNC(=N)N)NC(=O)[C@H](CC(N)=O)NC(=O)[C@H](CC(N)=O)NC(=O)CN)C(C)C)C(=O)N1CCC[C@H]1C(=O)N[C@@H](CCC(N)=O)C(=O)N1CCC[C@H]1C(=O)N[C@@H](CCCNC(=N)N)C(=O)N1CCC[C@H]1C(=O)N1CCC[C@H]1C(=O)N[C@@H](Cc1cnc[nH]1)C(=O)N1CCC[C@H]1C(=O)N(CCCNC(=N)N)CC(=O)N[C@@H](CC(C)C)C(=O)O (H-GNNRPVYIPQPRPPHP[Gly(N-(CH2)3-guanidino)]L-OH) | Not Active | Not Active | ≤ 2% | > 128 µM | > 128 µM | > 128 µM | > 128 µM | > 128 µM | > 128 µM | > 128 µM | Stable | 0.44% |
| CC[C@H](C)[C@H](NC(=O)[C@H](Cc1ccc(O)cc1)NC(=O)[C@@H](NC(=O)[C@@H]1CCCN1C(=O)[C@H](CCCNC(=N)N)NC(=O)[C@H](CC(N)=O)NC(=O)[C@H](CC(N)=O)NC(=O)CN)C(C)C)C(=O)N1CCC[C@H]1C(=O)N[C@@H](CCC(N)=O)C(=O)N1CCC[C@H]1C(=O)N[C@@H](CCCNC(=N)N)C(=O)N1CCC[C@H]1C(=O)N1CCC[C@H]1C(=O)N[C@@H](Cc1cnc[nH]1)C(=O)N1CCC[C@H]1C(=O)N(CCCCNC(=N)N)CC(=O)N[C@@H](CC(C)C)C(=O)O (H-GNNRPVYIPQPRPPHP[NhArg]L-OH) | Not Active | Not Active | ≤ 2% | > 128 µM | > 128 µM | > 128 µM | > 128 µM | > 128 µM | > 128 µM | > 128 µM | – | 0.81% |
| CC[C@H](C)[C@H](NC(=O)[C@H](Cc1ccc(O)cc1)NC(=O)[C@@H](NC(=O)[C@@H]1CCCN1C(=O)[C@H](CCCNC(=N)N)NC(=O)[C@H](CC(N)=O)NC(=O)[C@H](CC(N)=O)NC(=O)CN)C(C)C)C(=O)N1CCC[C@H]1C(=O)N[C@@H](CCC(N)=O)C(=O)N1CCC[C@H]1C(=O)N[C@@H](CCCNC(=N)N)C(=O)N1CCC[C@H]1C(=O)N1CCC[C@H]1C(=O)N[C@@H](Cc1cnc[nH]1)C(=O)N1CCC[C@H]1C(=O)N(CCNC(=N)N)CC(=O)N[C@@H](CC(C)C)C(=O)O (H-GNNRPVYIPQPRPPHP[X1]L-OH) | Not Active | Not Active | ≤ 2% | > 128 µM | > 128 µM | > 128 µM | > 128 µM | > 128 µM | > 128 µM | > 128 µM | – | 0.62% |
| CC[C@H](C)[C@H](NC(=O)[C@H](Cc1ccc(O)cc1)NC(=O)[C@@H](NC(=O)[C@@H]1CCCN1C(=O)[C@H](CCCNC(=N)N)NC(=O)[C@H](CC(N)=O)NC(=O)[C@H](CC(N)=O)NC(=O)CN)C(C)C)C(=O)N1CCC[C@H]1C(=O)N[C@@H](CCC(N)=O)C(=O)N1CCC[C@H]1C(=O)N(CCCNC(=N)N)CC(=O)N1CCC[C@H]1C(=O)N1CCC[C@H]1C(=O)N[C@@H](Cc1cnc[nH]1)C(=O)N1CCC[C@H]1C(=O)N[C@@H](CCCNC(=N)N)C(=O)N[C@@H](CC(C)C)C(=O)O (H-GNNRPVYIPQP[Gly(N-(CH2)3-guanidino)]PPHPRL-OH) | Not Active | Not Active | ≤ 2% | > 128 µM | 16 µM (≈ 33.7 µg/mL) | 16 µM (≈ 33.7 µg/mL) | 32 µM (≈ 67.5 µg/mL) | 16 µM (≈ 33.7 µg/mL) | 16 µM (≈ 33.7 µg/mL) | 16 µM (≈ 33.7 µg/mL) | – | 2% |
